From PMC11237012, “Synthesis and preliminary evaluation of novel PET probes for GSK-3 imaging” (Scientific Reports, 2024)

Experiment: In vivo PET imaging, uptake in brain and liver
Parameters: species or system wild-type FVB/NJ mice
Description: To evaluate the imaging potential and brain uptake of PET probe [^18F]2, we selected FVB/NJ wild-type mice and performed radiotracer uptake studies via tail vein injection of [^18F]2 followed by dynamic imaging upto 60 min and static imaging at 120 min post-injection. Ex-vivo biodistribution was performed immediately after 120 min static imaging. Uptake of [^18F]2 was assessed in the brain and liver of wild-type FVB/NJ mice by PET imaging at different time points post-injection with and without co-administration of 2 (reference compound as a self-blocking agent). Representative transverse sectional PET images of the brain at different time points are shown in Fig. 6 and representative coronal and sagittal sectional PET images of the liver and whole-body PET images are shown in SI-Figs. S17 and S18, respectively. It was encouraging to observe brain uptake of PET probe [^18F]2 with a standard uptake value (SUV) of 0.92 ± 0.28 (n = 6) at 5 min post-injection. Approximately 80% of PET probe [^18F]2 was cleared from the wild-type mice brain in the first 30 min. The uptake of [^18F]2 in the brain was lower than in the liver at all time points post-injection. […] The contrasting response in uptake of [^18F]2 in the brain in the presence of 2 could be attributed to the peripheral effect. […] This is also evident from the higher concentration of 2 in the blood of the animals in which [^18F]2 was co-administered with 2 as compared to administration of only [^18F]2 (Figs. 6, 7 and 8 and SI-Table S2, SI-Figs. S17, S18). A similar observation was also reported by Lindberg et al. 2021 with [^11C]verubulin in rats, where co-injection of verubulin increased the uptake of [^11C]verubulin in the brain and was attributed to the saturation of the enzymes (e.g. cytochrome P450 enzymes) that metabolize the tracer in the liver, leading to increased bioavailability. It is also plausible that the isonicotinamide class of compounds are substrate for cytochrome P450 enzymes.
Uptake of PET probe [^18F]2 (1.40 ± 0.61 MBq) was assessed with and without co-administration of 2 in 10–13-week-old wild-type FVB/NJ mice (The Jackson Laboratory, Bar Harbor, ME) after tail vein injection followed by PET imaging at 5 min, 10 min, 15 min, 20 min, 25 min, 30 min, 40 min, 50 min, 60 min and 120 min post injection. Additionally, ex vivo biodistribution was performed at 5 min, 10 min and 120 min post tail vein injection. To prepare [^18F]2 formulation for injection, 0.76 ± 0.48 µg (2.01 ± 1.27 nmol) of [^18F]2 was formulated in 10% ethanol/ 90% isotonic saline. For the blocking experiment, 20.21 ± 1.63 µg (53.75 ± 4.33 nmol) of 2 in DMSO was added to [^18F]2 (Am of 87.27 ± 77.26 (n = 13) GBq/µmole, having 0.46 ± 0.31 µg or 1.23 ± 0.83 nmol of nonradioactive 2 in it) in the final formulation volume of ~ 100 µL. This study had 12 wild type FVB/NJ male mice with body weight 31.8 ± 2.7 g and 10 wild type FVB/NJ female mice with body weight 27.0 ± 3.6 g at the time of imaging. All the animals were anesthetized for tail vein injection and PET imaging using an induction dose of 3% isoflurane and a maintenance dose of 2–3% isoflurane, which was administered via isoflurane vaporizer. All anesthetized animals were kept warm during imaging using a heat supported imaging chamber. For ex vivo biodistribution studies, animals were sacrificed at 5 min, 10 min and 120 min post-injection by cervical dislocation and tissues were harvested for gamma counting. For PET imaging studies, each animal underwent a 60 min dynamic PET scan (Framing Sequence: 1 × 10 s, 4 × 15 s, 8 × 30 s, 5 × 60 s, 4 × 300 s, 3 × 600 s) immediately post injection followed by 10 min static PET scan at 120 min post-injection on small animal micro-PET/X-ray system, Genesys 4 (Sofie BioSystems, Dulles, VA, USA). The PET images were reconstructed using Genesys 4 imaging software installed on the imaging system. […]

Uptake (SUV) by PET image analysis (brain, 5 min post-injection, [^18F]2 + 20 µg of 2): 0.93 ± 0.06
Uptake (SUV) by PET image analysis (brain, 5 min post-injection, [^18F]2 alone): 0.92 ± 0.28
Change of brain uptake on co-administration of compound 2 (brain, 5 min time point): no difference in uptake
Uptake (SUV) by PET image analysis (brain, 10 min post-injection, [^18F]2 + 20 µg of 2): 0.57 ± 1.06
Uptake (SUV) by PET image analysis (brain, 10 min post-injection, [^18F]2 alone): 0.38 ± 0.06
Change of brain uptake on co-administration of compound 2 (brain, 10 min time point): 1.5 fold
Change of brain uptake on co-administration of compound 2 (brain, 15 min, 20 min, 25 min and 30 min time points): twofold
Uptake (SUV) by PET image analysis (brain, 15 min post-injection, [^18F]2 + 20 µg of 2): 0.50 ± 0.06
Uptake (SUV) by PET image analysis (brain, 15 min post-injection, [^18F]2 alone): 0.24 ± 0.03
Uptake (SUV) by PET image analysis (brain, 20 min post-injection, [^18F]2 + 20 µg of 2): 0.43 ± 0.06
Uptake (SUV) by PET image analysis (brain, 20 min post-injection, [^18F]2 alone): 0.21 ± 0.02
Uptake (SUV) by PET image analysis (brain, 25 min post-injection, [^18F]2 + 20 µg of 2): 0.40 ± 0.06
Uptake (SUV) by PET image analysis (brain, 25 min post-injection, [^18F]2 alone): 0.19 ± 0.03
Uptake (SUV) by PET image analysis (brain, 30 min post-injection, [^18F]2 + 20 µg of 2): 0.36 ± 0.06
Uptake (SUV) by PET image analysis (brain, 30 min post-injection, [^18F]2 alone): 0.19 ± 0.04
Uptake (SUV) by PET image analysis (brain, 40 min post-injection, [^18F]2 + 20 µg of 2): 0.31 ± 0.06
Uptake (SUV) by PET image analysis (brain, 40 min post-injection, [^18F]2 alone): 0.18 ± 0.04
Uptake (SUV) by PET image analysis (brain, 50 min post-injection, [^18F]2 + 20 µg of 2): 0.28 ± 0.06
Uptake (SUV) by PET image analysis (brain, 50 min post-injection, [^18F]2 alone): 0.17 ± 0.03
Uptake (SUV) by PET image analysis (brain, 60 min post-injection, [^18F]2 + 20 µg of 2): 0.26 ± 0.06
Uptake (SUV) by PET image analysis (brain, 60 min post-injection, [^18F]2 alone): 0.16 ± 0.03
Uptake (SUV) by PET image analysis (brain, 120 min post-injection, [^18F]2 + 20 µg of 2): 0.18 ± 0.01
Uptake (SUV) by PET image analysis (brain, 120 min post-injection, [^18F]2 alone): 0.09 ± 0.01
Uptake (SUV) by PET image analysis (liver, 5 min post-injection, [^18F]2 + 20 µg of 2): 5.24 ± 1.46
Uptake (SUV) by PET image analysis (liver, 5 min post-injection, [^18F]2 alone): 5.66 ± 1.18
Uptake (SUV) by PET image analysis (liver, 10 min post-injection, [^18F]2 + 20 µg of 2): 5.86 ± 0.51
Uptake (SUV) by PET image analysis (liver, 10 min post-injection, [^18F]2 alone): 7.43 ± 0.66
Uptake (SUV) by PET image analysis (liver, 15 min post-injection, [^18F]2 + 20 µg of 2): 5.49 ± 0.28
Uptake (SUV) by PET image analysis (liver, 15 min post-injection, [^18F]2 alone): 7.89 ± 0.59
Uptake (SUV) by PET image analysis (liver, 20 min post-injection, [^18F]2 + 20 µg of 2): 5.19 ± 0.27
Uptake (SUV) by PET image analysis (liver, 20 min post-injection, [^18F]2 alone): 7.88 ± 0.60
Uptake (SUV) by PET image analysis (liver, 25 min post-injection, [^18F]2 + 20 µg of 2): 4.93 ± 0.30
Uptake (SUV) by PET image analysis (liver, 25 min post-injection, [^18F]2 alone): 7.61 ± 0.65
Uptake (SUV) by PET image analysis (liver, 30 min post-injection, [^18F]2 + 20 µg of 2): 4.76 ± 0.33
Uptake (SUV) by PET image analysis (liver, 30 min post-injection, [^18F]2 alone): 7.34 ± 0.77
Uptake (SUV) by PET image analysis (liver, 40 min post-injection, [^18F]2 + 20 µg of 2): 4.55 ± 0.23
Uptake (SUV) by PET image analysis (liver, 40 min post-injection, [^18F]2 alone): 6.91 ± 0.91
Uptake (SUV) by PET image analysis (liver, 50 min post-injection, [^18F]2 + 20 µg of 2): 4.31 ± 1.15
Uptake (SUV) by PET image analysis (liver, 50 min post-injection, [^18F]2 alone): 6.40 ± 1.04
Uptake (SUV) by PET image analysis (liver, 60 min post-injection, [^18F]2 + 20 µg of 2): 4.09 ± 1.16
Uptake (SUV) by PET image analysis (liver, 60 min post-injection, [^18F]2 alone): 5.95 ± 1.12
Uptake (SUV) by PET image analysis (liver, 120 min post-injection, [^18F]2 + 20 µg of 2): 3.19 ± 0.37
Uptake (SUV) by PET image analysis (liver, 120 min post-injection, [^18F]2 alone): 2.78 ± 1.40
Fraction of probe cleared from the brain (wild-type mice brain, in the first 30 min): Approximately 80%
SMILES: O=C(Nc1cnccc1-c1ccc([18F])cc1)c1ccnc(NC(=O)C2CC2)c1 [[^18F]2]
